We go through 35 molecules from US10081647B2, “Phosphate substituted quinolizine derivatives useful as HIV integrase inhibitors” (Merck Sharp & Dohme Corp., priority 2015, dated 2018).

For the assay, the system named is HIV-1 (NL4-3 strain). As to the kind of experiment: Assay for inhibition of HIV replication (MT4-gag-GFP reporter cell line, kinetic assay). It is filed as cell-based. Conditions: IP from 4-parameter dose response curve. As to the method:
This assay is useful for assessing the ability of a compound of the present inventiongin to inhibit HIV replication. The assay is a kinetic assay that employs a reporter cell line (MT4-gag-GFP) to quantify the number of new cells infected in each round of replication.
MT4-GFP cells (250,000 cells/ml) are bulk-infected with HIV-1 (NL4-3 strain) at low multiplicity of infection (MOI) in RPMI+10% FBS for 24 hours. Cells are then washed once in RPMI+10% FBS and resuspended in RPMI+0% or 10% or 100% normal human serum (NHS). Test compounds are serial-diluted in DMSO using an ECHO liquid handler. The infected MT4-GFP cells are added to a 384-well poly-D-lysine coated black plate with clear bottom in which the diluted test compounds are placed. The cells are seeded at 8,000 cells per well and the final DMSO concentration is adjusted to 0.4%. The infected cells (Green GFP cells) are then quantified at both 24 and 48 hours post incubation using Acumen eX3. Viral reproductive ratio (R0) is determined using the number of infected cells at 48 hours divided by the number of infected cells at 24 hours. Percent viral growth inhibition is calculated by [1−(R−Rtripledrug)/(RDMSO−Rtripledrug)]*100. Compound potency IP or IC50 can be determined using a 4-parameter dose response curve analysis.

The mark [1] stands for this setting: infected MT4-GFP cells in 100% normal human serum, read-out: WILD TYPE CELL ASSAY Viking IP (100% NHS).
Setting [2] is: infected MT4-GFP cells in RPMI + 0% normal human serum, read-out: WILD TYPE CELL ASSAY Viking IP (0% NHS).
Setting [3] is: Human immunodeficiency virus 1, NL43, infected MT4-GFP cells in RPMI + 0% normal human serum, read-out: WILD TYPE CELL ASSAY Viking IP (0% NHS).

Where two headings read alike, the source gives them in different places. Some results are limits rather than exact numbers.

As to `CCOP(=O)(CCOCC1(C)C(=O)c2c(O)c(=O)c(C(=O)NCc3ccc(F)cc3F)cn2CC1OC)OCC` (stereo not shown) [Compound 33], the IC50 runs as follows: under setting [1], 188 nM; under setting [2], 13 nM.

As for `COC1Cn2cc(C(=O)NCc3ccc(F)cc3F)c(=O)c(O)c2C(=O)C1(C)COCCP(=O)(OCOC(=O)OC(C)C)OCOC(=O)OC(C)C` (stereo not shown) [Compound 41], the IC50 was more than 8000 nM under setting [1] and 0.97 nM under setting [2].

As to `CCOP(=O)(CCOCC1(C)C(=O)c2c(O)c(=O)c(C(=O)NCc3ccc(F)cc3F)cn2CC1OC)OCC` (stereo not shown) [Compound 32], the IC50 is, setting by setting: under setting [1], 425 nM; under setting [2], 7.5 nM.

With `CCOP(=O)(CCCOCCC1(C)C(=O)c2c(O)c(=O)c(C(=O)NCc3ccc(F)cc3F)cn2CC1OC)OCC` (stereo not shown) [Compound 45], the IC50 under setting [1] is 300 nM and the IC50 under setting [2] came out at 8.2 nM.

For `CC(C)OC(=O)OCOP(=O)(CCCNC1Cn2cc(C(=O)NCc3ccc(F)cc3F)c(=O)c(O)c2C(=O)C1(C)C)OCOC(=O)OC(C)C` (stereo not shown) [Compound 110], the IC50 under setting [1] was 154 nM and the IC50 under setting [2] was determined as 8.8 nM.

Take `COC1Cn2cc(C(=O)NCc3ccc(F)cc3F)c(=O)c(O)c2C(=O)C1(C)COCCP(=O)(OCOC(=O)OC(C)C)OCOC(=O)OC(C)C` (stereo not shown) [Compound 40]: the IC50 was determined as 118 nM under setting [1] and 0.5 nM under setting [2].

Regarding `CCOP(=O)(CCCOCCC1(C)C(=O)c2c(O)c(=O)c(C(=O)NCc3ccc(F)cc3F)cn2CC1OC)OCC` (stereo not shown) [Compound 47], the IC50 by setting is: under setting [1], 4600 nM; under setting [2], 298 nM.

As to `CC(C)OC(=O)OCOP(=O)(CCCOC1Cn2cc(C(=O)NCc3ccc(F)cc3F)c(=O)c(O)c2C(=O)C1(C)C)OCOC(=O)OC(C)C` (stereo not shown) [Compound 76], the IC50 reads like this: under setting [1], 2770 nM; under setting [2], 45 nM.

As to `COC1Cn2cc(C(=O)NCc3ccc(F)cc3F)c(=O)c(O)c2C(=O)C1(C)CCOCCCP(=O)(O)O` (stereo not shown) [Compound 49], the IC50 runs as follows: under setting [1], more than 8400 nM; under setting [2], more than 1050 nM.

`CCOP(=O)(CCCOC1Cn2cc(C(=O)NCc3ccc(F)cc3F)c(=O)c(O)c2C(=O)C1(C)CCOC)OCC` (stereo not shown) [Compound 90]: the IC50 is, setting by setting: under setting [1], 123 nM; under setting [2], 15 nM.

In the case of `COC1Cn2cc(C(=O)NCc3ccc(F)cc3F)c(=O)c(O)c2C(=O)C1(C)CCOCCP(=O)(OCOC(=O)OC(C)C)OCOC(=O)OC(C)C` (stereo not shown) [Compound 63], the IC50 runs as follows: under setting [1], 566 nM; under setting [2], 4.6 nM.

Consider `CC(C)OC(=O)OCOP(=O)(CCOC1Cn2cc(C(=O)NCc3ccc(F)cc3F)c(=O)c(O)c2C(=O)C1(C)C)OCOC(=O)OC(C)C` (stereo not shown) [Compound 69], for which the IC50 came out at 25 nM under setting [1] and 1.1 nM under setting [2].

Consider `COC1Cn2cc(C(=O)NCc3ccc(F)cc3F)c(=O)c(O)c2C(=O)C1(C)CCOCCP(=O)(OCOC(=O)OC(C)C)OCOC(=O)OC(C)C` (stereo not shown) [Compound 62], for which the IC50 under setting [1] was found to be 4700 nM and the IC50 under setting [2] was determined as 14 nM.

In the case of `COCCC1(C)C(=O)c2c(O)c(=O)c(C(=O)NCc3ccc(F)cc3F)cn2CC1OCCP(=O)(O)O` (stereo not shown) [Compound 84], the IC50 reads like this: under setting [1], 2930 nM; under setting [2], 492 nM.

With `CCOP(=O)(CCOCCC1(C)C(=O)c2c(O)c(=O)c(C(=O)NCc3ccc(F)cc3F)cn2CC1OC)OCC` (stereo not shown) [Compound 54], the IC50 was 223 nM under setting [1] and 11 nM under setting [2].

Regarding `CCOP(=O)(CCCOCCC1(C)C(=O)c2c(O)c(=O)c(C(=O)NCc3ccc(F)cc3F)cn2CC1OC)OCC` (stereo not shown) [Compound 46], the IC50 under setting [1] came to 102 nM and the IC50 under setting [2] was 4.2 nM.

With `CC1(C)C(=O)c2c(O)c(=O)c(C(=O)NCc3ccc(F)cc3F)cn2CC1OCCCP(=O)(O)O` (stereo not shown) [Compound 73], the IC50 is more than 8400 nM (Human immunodeficiency virus 1, NL43, infected MT4-GFP cells in 100% normal human serum, read-out: WILD TYPE CELL ASSAY Viking IP (100% NHS)) and 836 nM under setting [3].

Turning to `CC(C)OC(=O)OCOP(=O)(CCCOC1Cn2cc(C(=O)NCc3ccc(F)cc3F)c(=O)c(O)c2C(=O)C1(C)C)OCOC(=O)OC(C)C` (stereo not shown) [Compound 75], the IC50 came out at 191 nM under setting [1] and 6.3 nM under setting [2].

For `CCOP(=O)(CCCNC1Cn2cc(C(=O)NCc3ccc(F)cc3F)c(=O)c(O)c2C(=O)C1(C)C)OCC` (stereo not shown) [Compound 106], the IC50 under setting [1] stood at 95 nM and the IC50 under setting [2] was found to be 3.6 nM.

In the case of `COC1Cn2cc(C(=O)NCc3ccc(F)cc3F)c(=O)c(O)c2C(=O)C1(C)CCOCCP(=O)(O)O` (stereo not shown) [Compound 59], the IC50 by setting is: under setting [1], 4260 nM; under setting [2], more than 1050 nM.

`COCCC1(C)C(=O)c2c(O)c(=O)c(C(=O)NCc3ccc(F)cc3F)cn2CC1OCCP(=O)(O)O` (stereo not shown) [Compound 82]: the IC50 is more than 8000 nM under setting [1] and 729 nM under setting [2].

On to `COC1Cn2cc(C(=O)NCc3ccc(F)cc3F)c(=O)c(O)c2C(=O)C1(C)CCOCCP(=O)(OCOC(=O)OC(C)C)OCOC(=O)OC(C)C` (stereo not shown) [Compound 64], for which the IC50 under setting [1] is 289 nM and the IC50 under setting [2] was 2.9 nM.

Regarding `CCOP(=O)(CCNC1Cn2cc(C(=O)NCc3ccc(F)cc3F)c(=O)c(O)c2C(=O)C1(C)C)OCC` (stereo not shown) [Compound 102], the IC50 by setting is: under setting [1], 150 nM; under setting [2], 25 nM.

Take `CCOP(=O)(CCCOC1Cn2cc(C(=O)NCc3ccc(F)cc3F)c(=O)c(O)c2C(=O)C1(C)CCOC)OCC` (stereo not shown) [Compound 92]: the IC50 reads like this: under setting [1], 2320 nM; under setting [2], 143 nM.

In the case of `COCCC1(C)C(=O)c2c(O)c(=O)c(C(=O)NCc3ccc(F)cc3F)cn2CC1OCCP(=O)(OCOC(=O)OC(C)C)OCOC(=O)OC(C)C` (stereo not shown) [Compound 88], the IC50 is, setting by setting: under setting [1], 29 nM; under setting [2], 0.9 nM.

With `CCOP(=O)(CCNC1Cn2cc(C(=O)NCc3ccc(F)cc3F)c(=O)c(O)c2C(=O)C1(C)C)OCC` (stereo not shown) [Compound 101], the IC50 by setting is: under setting [3], 50 nM; under setting [1], 891 nM.

Turning to `COC1Cn2cc(C(=O)NCc3ccc(F)cc3F)c(=O)c(O)c2C(=O)C1(C)CCOCCCP(=O)(O)O` (stereo not shown) [Compound 50], the IC50 was more than 8400 nM under setting [1] and more than 1050 nM under setting [2].

`COC1Cn2cc(C(=O)NCc3ccc(F)cc3F)c(=O)c(O)c2C(=O)C1(C)CCOCCP(=O)(O)O` (stereo not shown) [Compound 61]: the IC50 was 2500 nM under setting [1] and 970 nM under setting [2].

With `CCOP(=O)(CCCNC1Cn2cc(C(=O)NCc3ccc(F)cc3F)c(=O)c(O)c2C(=O)C1(C)C)OCC` (stereo not shown) [Compound 105], the IC50 is, setting by setting: under setting [1], 628 nM; under setting [2], 15 nM.

Take `CC1(C)C(=O)c2c(O)c(=O)c(C(=O)NCc3ccc(F)cc3F)cn2CC1OCCCP(=O)(O)O` (stereo not shown) [Compound 74]: the IC50 was more than 8400 nM under setting [1] and more than 1050 nM under setting [2].

Take `CCOP(=O)(CCOC1Cn2cc(C(=O)NCc3ccc(F)cc3F)c(=O)c(O)c2C(=O)C1(C)C)OCC` (stereo not shown) [Compound 65]: the IC50 came out at 131 nM under setting [1] and 5.4 nM under setting [2].

For the molecule `COC1Cn2cc(C(=O)NCc3ccc(F)cc3F)c(=O)c(O)c2C(=O)C1(C)COCCP(=O)(O)O` (stereo not shown) [Compound 38], the IC50 reads like this: under setting [1], 6050 nM; under setting [2], 738 nM.

Take `COC1Cn2cc(C(=O)NCc3ccc(F)cc3F)c(=O)c(O)c2C(=O)C1(C)CCOCCP(=O)(O)O` (stereo not shown) [Compound 58]: the IC50 under setting [3] is more than 1050 nM and the IC50 under setting [1] is more than 8400 nM.

For `CCOP(=O)(CCOC1Cn2cc(C(=O)NCc3ccc(F)cc3F)c(=O)c(O)c2C(=O)C1(C)C)OCC` (stereo not shown) [Compound 66], the IC50 came to 1280 nM under setting [1] and 19 nM under setting [2].

On to `COCCC1(C)C(=O)c2c(O)c(=O)c(C(=O)NCc3ccc(F)cc3F)cn2CC1OCCP(=O)(O)O` (stereo not shown) [Compound 83], for which the IC50 reads like this: under setting [1], 5380 nM; under setting [2], more than 1000 nM.
